Values of other authors in patent publication US20130122099A1, “POLYETHYLENE GLYCOL-COATED SODIUM CARBONATE AS A PHARMACEUTICAL EXCIPIENT AND COMPOSITIONS PRODUCED FROM THE SAME” (priority 2008, published 2013).

Conditions: not given

Row | SMILES | pKa
1 | O=C1CC2(CCCC2)CC(=O)N1CCCCN1CCN(c2ncccn2)CC1 [Buspirone] | 7.2
2 | COc1cc(N)c(Cl)cc1C(=O)NC1CCN(CCCOc2ccc(F)cc2)CC1OC (stereo not shown) [Cisapride] | 7.83
3 | CN1CCN(C(c2ccccc2)c2ccccc2)CC1 [Cyclizine] | 7.7
4 | CCCCOc1cc(C(=O)NCCN(CC)CC)c2ccccc2n1 [Dibucaine] | 8.5
5 | CN(C)CCC=C1c2ccccc2COc2ccccc21 [Doxepin] | 8.2
6 | CNCCC(Oc1ccc(C(F)(F)F)cc1)c1ccccc1 (stereo not shown) [Fluoxetine] | 8.7
7 | CN1C2CCCC1CC(NC(=O)c1nn(C)c3ccccc13)C2 (stereo not shown) [Granisetron] | 9.4
8 | O=c1[nH]c(=O)n([C@H]2C[C@H](O)[C@@H](CO)O2)cc1I [Idoxuridine] | 8.3
9 | CN1CCC(=C2c3ccccc3CC(=O)c3sccc32)CC1 [Ketotifen] | 8.75
10 | CC(CCc1ccccc1)NCC(O)c1ccc(O)c(C(N)=O)c1 (stereo not shown) [Labetalol] | 8.7
11 | CN1CCCCC1CCN1c2ccccc2Sc2ccc([S+](C)[O-])cc21 (stereo not shown) [Mesoridazine] | 8.2
12 | CC(=O)/N=c1/sc(S(N)(=O)=O)nn1C [Methazolamide] | 7.3
13 | CN1CCN2c3ccccc3Cc3ccccc3C2C1 (stereo not shown) [Mianserine] | 8.3
14 | CN1CCN2c3ncccc3Cc3ccccc3C2C1 (stereo not shown) [Mirtazapine] | 7.7
15 | C=CCN1CC[C@]23c4c5ccc(O)c4O[C@H]2C(=O)CC[C@@]3(O)[C@H]1C5 [Naloxone] | 7.82
16 | OC(CNCC(O)C1CCc2cc(F)ccc2O1)C1CCc2cc(F)ccc2O1 (stereo not shown) [Nebivolol] | 8.6
17 | COc1ccc2c(c1OC)C(=O)O[C@@H]2[C@H]1c2c(cc3c(c2OC)OCO3)CCN1C [Noscapine] | 7.8
18 | Cc1nccn1CC1CCc2c(c3ccccc3n2C)C1=O (stereo not shown) [Ondansetron] | 7.7
19 | CCN(CC)CCCC(C)Nc1cc(OC)cc2cccnc12 (stereo not shown) [Pamaquine] | 8.7
20 | N#Cc1ccc2c(c1)N(CCCN1CCC(O)CC1)c1ccccc1S2 [Periciazine] | 8.3
21 | OCCN1CCN(CCCN2c3ccccc3Sc3ccc(Cl)cc32)CC1 [Perphenazine] | 7.94
22 | CC[C@@H]1C(=O)OC[C@@H]1Cc1cncn1C [Pilocarpine] | 6.6
23 | Cc1ccc2c(c1)c1c3n2CCNC3CCC1 (stereo not shown) [Pirlindole] | 7.7

Row | SMILES | pKa
24 | CN[C@H]1CC[C@@H](c2ccc(Cl)c(Cl)c2)c2ccccc21 [Sertraline] | 9.4
25 | Cc1ccnc(NS(=O)(=O)c2ccc(N)cc2)n1 [Sulfamerazine] | 8.0
26 | Cc1cc(C)nc(NS(=O)(=O)c2ccc(N)cc2)n1 [Sulfamethazine] | 7.4
27 | CCN(CC)C(=O)N[C@H]1C[C@@H]2c3cccc4[nH]cc(c34)C[C@H]2N(C)C1 [Terguride] | 7.2
28 | CC(C)(C)NC[C@H](O)COc1nsnc1N1CCOCC1 [Timolol] | 9.2
29 | Clc1ccc2nsnc2c1NC1=NCCN1 [Tizanidine] | 9.0
30 | CC1(C)S[C@@H]2[C@H](NC(=O)[C@H](N)c3ccc(O)cc3)C(=O)N2[C@H]1C(=O)O [amoxicillin] | 7.4
31 | c1ccc(CN(CC2=NCCN2)c2ccccc2)cc1 [antazoline] | 7.2
32 | CN1CCN(C(c2ccccc2)c2ccc(Cl)cc2)CC1 (stereo not shown) [chlorcyclizine] | 9.65
33 | CN(C)CCOC(=O)C(c1ccccc1)C1(O)CCCC1 (stereo not shown) [cyclopentolate] | 7.9
34 | O=C1CN(/N=C/c2ccc(-c3ccc([N+](=O)[O-])cc3)o2)C(O)=N1 [dantrolene] | 7.5
35 | COc1cccc2c1C(=O)c1c(O)c3c(c(O)c1C2=O)C[C@@](O)(C(C)=O)C[C@@H]3O[C@H]1C[C@H](N)[C@H](O)[C@H](C)O1 [daunomycin] | 8.2
36 | CCC1(C)CC(=O)NC1=O (stereo not shown) [ethosuximide] | 9.3
37 | O=C1NCN(c2ccccc2)C12CCN(CCCC(c1ccc(F)cc1)c1ccc(F)cc1)CC2 [fluspirilene] | 7.32
38 | NS(=O)(=O)c1cc2c(cc1C(F)(F)F)NCNS2(=O)=O [hydroflumethiazide] | 8.9
39 | OCCOCCN1CCN(C(c2ccccc2)c2ccc(Cl)cc2)CC1 (stereo not shown) [hydroxyzine] | 7.1
40 | CCC[C@@H]1C[C@@H](C(=O)N[C@@H]([C@H]2O[C@H](SC)[C@H](O)[C@@H](O)[C@H]2O)[C@@H](C)O)N(C)C1 [lincomycin] | 7.5
41 | CCC1(c2ccccc2)NC(=O)N(C)C1=O (stereo not shown) [mephenytoin] | 8.33
42 | COc1ccc(CN(CCN(C)C)c2ccccn2)cc1 [mepyramine] | 8.9
43 | CCn1cc(C(=O)O)c(=O)c2cc(F)c(N3CCNCC3)cc21 [norfloxacin] | 8.75
44 | OC1(c2ccc(Cl)c(C(F)(F)F)c2)CCN(CCCC(c2ccc(F)cc2)c2ccc(F)cc2)CC1 [penfluridol] | 8.0
45 | CN1C(=O)CC(c2ccccc2)C1=O (stereo not shown) [phensuximide] | 9.2

Same assay, conditions: listed as daunorubicin

Row | SMILES | pKa
46 | COc1cccc2c1C(=O)c1c(O)c3c(c(O)c1C2=O)C[C@@](O)(C(C)=O)C[C@@H]3O[C@H]1C[C@H](N)[C@H](O)[C@H](C)O1 [daunomycin] | 8.25
